# Assay: recombinant barcode read abundance after kanamycin selection (control-corrected) (log10(CPM+1)); higher = more efficient recombination; sequences stand for … in AGTGCAGAGAAAATCGGCCAGTTTTCTCTGCCTGCAGTCCGCATGCCGT…AGATTTATGCAGCGGACTGCCTTTCTCCCAAAGTGATAAACCGGACAGTATCATGGACCGGTTTTCCCGGTAATCCGTATTTGCAAGGTTGGTTTCACT; site = the 11-nt target
# Method in brief: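 Recombination efficiency was calculated from barcode counts at recombinant junctions, normalized to counts per million, averaged and corrected by the control. Each value is given as log10(CPM+1). The constructs were Gibson-cloned oligos (promoter, target, barcode, J23119-driven first 104 bridge RNA bases) in a vector with the remaining 73 bp and a T7-inducible recombinase, co-electroporated into E. coli with a donor plasmid and plated in duplicate on chloramphenicol/ampicillin LB agar (control) or chloramphenicol/ampicillin/kanamycin with 0.1 mM IPTG.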
# 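Note: IS621 recombinase and bridge RNA in Escherichia coli cells.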
row,Sequence,recombinant barcode read abundance (log10)
1,TTATTCACTTGGGTTCTAACCTGTTGCCT (site TCATTGACTAG),0.0352
2,TTATTCACTTGGGTTCTAACCTGTTGCCT (site TTATTCACTAG),1.48
3,TTCAAGTCTTGGGTTCTAACCTGTTGCCT (site TTCAAGACTAG),0.102
4,TTCAAGTCTTGGGTTCTAACCTGTTGCCT (site TTCAAGCCTAG),0.198
5,TTCAAGTCTTGGGTTCTAACCTGTTGCCT (site TTCAAGGCTAG),0.0708
6,TTCAAGTCTTGGGTTCTAACCTGTTGCCT (site TTCAAGTCTAG),0.33
7,TTCACGTCTTGGGTTCTAACCTGTTGCCT (site TTCACGTCTAG),0.202
8,TTCACGTCTTGGGTTCTAACCTGTTGCCT (site TTCATGTCTAG),0.0406
9,TTCAGACCTTGGGTTCTAACCTGTTGCCT (site AGGTACACTGT),0.0824
10,TTCAGACCTTGGGTTCTAACCTGTTGCCT (site TTCAGACCTAG),0.912
11,TTCCAAACTTGGGTTCTAACCTGTTGCGG (site TTCCAAACTCC),1.31
12,TTCCAAACTTGGGTTCTAACCTGTTGCGG (site TTCCACACTCC),0.193
13,TTCCTATCTTGGGTTCTAACCTGTTGCCT (site TACCTATCTAG),0.221
14,TTCCTATCTTGGGTTCTAACCTGTTGCCT (site TCCCTATCTAG),0.071
15,TTCCTATCTTGGGTTCTAACCTGTTGCCT (site TGCCTATCTAG),0.0749
16,TTCCTATCTTGGGTTCTAACCTGTTGCCT (site TTCCTATCTAG),0.354
17,TTCGAGTCTTGGGTTCTAACCTGTTGCGG (site TGCGAGTCTAC),0.0798
18,TTCGAGTCTTGGGTTCTAACCTGTTGCGG (site TTCGAGTCTCC),1.91
19,TTCGCGCCTTGGGTTCTAACCTGTTGCCT (site TTCACGCCTAG),0.0251
20,TTCGCGCCTTGGGTTCTAACCTGTTGCCT (site TTCCCGCCTAG),0.144
21,TTCGCGCCTTGGGTTCTAACCTGTTGCCT (site TTCGCGCCTAG),0.134

row,Sequence,recombinant barcode read abundance (log10)
1,TTCGCGCCTTGGGTTCTAACCTGTTGCCT (site TTCTCGCCTAG),0.176
2,TTCGGGCCTTGGGTTCTAACCTGTTGCCT (site ATCGGGCCTAG),0.0878
3,TTCGGGCCTTGGGTTCTAACCTGTTGCCT (site CTCGGGCCTAG),0.0465
4,TTCGGGCCTTGGGTTCTAACCTGTTGCCT (site GTCGGGCCTAG),0.0582
5,TTCGGGCCTTGGGTTCTAACCTGTTGCCT (site TTCGGGCCTAG),0.169
6,TTCTAGTCTTGGGTTCTAACCTGTTGCTA (site ACAAGACCTAT),0.0562
7,TTCTAGTCTTGGGTTCTAACCTGTTGCTA (site TTCTAGTCTTA),0.416
8,TTCTGCGCTTGGGTTCTAACCTGTTGCCT (site TTCTGAGCTAG),0.0215
9,TTCTGCGCTTGGGTTCTAACCTGTTGCCT (site TTCTGCGCTAG),1.2
10,TTCTGCGCTTGGGTTCTAACCTGTTGCCT (site TTCTGGGCTAG),0.0626
11,TTCTGCGCTTGGGTTCTAACCTGTTGCCT (site TTCTGTGCTAG),0.191
12,TTCTGGGCTTGGGTTCTAACCTGTTGCCT (site TTCTGAGCTAG),0.172
13,TTCTGGGCTTGGGTTCTAACCTGTTGCCT (site TTCTGCGCTAG),0.0493
14,TTCTGGGCTTGGGTTCTAACCTGTTGCCT (site TTCTGGGCTAG),0
15,TTCTGGGCTTGGGTTCTAACCTGTTGCCT (site TTCTGTGCTAG),0.137
16,TTGAAACCTTGGGTTCTAACCTGTTGCCT (site GACGCCTCTGC),0.0146
17,TTGAAACCTTGGGTTCTAACCTGTTGCCT (site TTGAAACCTAG),1.04
18,TTGAGGCCTTGGGTTCTAACCTGTTGCCT (site ATGAGGCCTAG),0.059
19,TTGAGGCCTTGGGTTCTAACCTGTTGCCT (site CTGAGGCCTAG),0.0268
20,TTGAGGCCTTGGGTTCTAACCTGTTGCCT (site GTGAGGCCTAG),0.0327
21,TTGAGGCCTTGGGTTCTAACCTGTTGCCT (site TTGAGGCCTAG),0.0305

row,Sequence,recombinant barcode read abundance (log10)
1,TTGAGTCCTTGGGTTCTAACCTGTTGCCT (site TTGAGTCCTAG),1.04
2,TTGAGTCCTTGGGTTCTAACCTGTTGCCT (site TTGGGTCCTAC),0.319
3,TTGATAGCTTGGGTTCTAACCTGTTGCTA (site ACCGCGTCTAT),0.174
4,TTGATAGCTTGGGTTCTAACCTGTTGCTA (site TTGATAGCTTA),0.203
5,TTGCAAACTTGGGTTCTAACCTGTTGCCT (site TTGCAAACTAG),0.501
6,TTGCAAACTTGGGTTCTAACCTGTTGCCT (site TTGCCAACTAG),0.0256
7,TTGCAAACTTGGGTTCTAACCTGTTGCCT (site TTGCGAACTAG),0.0337
8,TTGCAAACTTGGGTTCTAACCTGTTGCCT (site TTGCTAACTAG),0.0349
9,TTGCGAACTTGGGTTCTAACCTGTTGCAG (site GACGCGGCTAG),0.0589
10,TTGCGAACTTGGGTTCTAACCTGTTGCAG (site TTGCGAACTCT),0.455
11,TTGCGAACTTGGGTTCTAACCTGTTGCCT (site TTGCAAACTAG),0.0904
12,TTGCGAACTTGGGTTCTAACCTGTTGCCT (site TTGCCAACTAG),0.269
13,TTGCGAACTTGGGTTCTAACCTGTTGCCT (site TTGCGAACTAG),0.868
14,TTGCGAACTTGGGTTCTAACCTGTTGCCT (site TTGCTAACTAG),0.0519
15,TTGCTAACTTGGGTTCTAACCTGTTGCCT (site TTGCAAACTAG),0.0817
16,TTGCTAACTTGGGTTCTAACCTGTTGCCT (site TTGCCAACTAG),0.0109
17,TTGCTAACTTGGGTTCTAACCTGTTGCCT (site TTGCGAACTAG),0.0431
18,TTGCTAACTTGGGTTCTAACCTGTTGCCT (site TTGCTAACTAG),0.802
19,TTGGATACTTGGGTTCTAACCTGTTGCCA (site CATCTACCTCC),0.103
20,TTGGATACTTGGGTTCTAACCTGTTGCCA (site TTGGATACTTG),1.04
21,TTGGCCACTTGGGTTCTAACCTGTTGCCT (site TTGGACACTAG),0.0972

row,Sequence,recombinant barcode read abundance (log10)
1,TTGGCCACTTGGGTTCTAACCTGTTGCCT (site TTGGCCACTAG),1.08
2,TTGGCCACTTGGGTTCTAACCTGTTGCCT (site TTGGGCACTAG),0.121
3,TTGGCCACTTGGGTTCTAACCTGTTGCCT (site TTGGTCACTAG),0.0232
4,TTGGCCGCTTGGGTTCTAACCTGTTGCCT (site TTGGACGCTAG),0.109
5,TTGGCCGCTTGGGTTCTAACCTGTTGCCT (site TTGGCCGCTAG),1.65
6,TTGGCCGCTTGGGTTCTAACCTGTTGCCT (site TTGGGCGCTAG),0.374
7,TTGGCCGCTTGGGTTCTAACCTGTTGCCT (site TTGGTCGCTAG),0.148
8,TTGGGGTCTTGGGTTCTAACCTGTTGCCT (site GTAGGGTCTAG),0.155
9,TTGGGGTCTTGGGTTCTAACCTGTTGCCT (site TTGGGGTCTAG),1.65
10,TTGGGTCCTTGGGTTCTAACCTGTTGCGT (site TTGAGTCCTAG),0.15
11,TTGGGTCCTTGGGTTCTAACCTGTTGCGT (site TTGGGTCCTAC),3.32
12,TTGGTCACTTGGGTTCTAACCTGTTGCCA (site GGAAGGCCTAA),0.0841
13,TTGGTCACTTGGGTTCTAACCTGTTGCCA (site TTGGTCACTTG),0.525
14,TTGGTCCCTTGGGTTCTAACCTGTTGCCT (site TTGGTACCTAG),0.565
15,TTGGTCCCTTGGGTTCTAACCTGTTGCCT (site TTGGTCCCTAG),2.93
16,TTGGTCCCTTGGGTTCTAACCTGTTGCCT (site TTGGTGCCTAG),0.0514
17,TTGGTCCCTTGGGTTCTAACCTGTTGCCT (site TTGGTTCCTAG),0.131
18,TTGTATACTTGGGTTCTAACCTGTTGCCT (site GTGTCTACTAG),0.129
19,TTGTATACTTGGGTTCTAACCTGTTGCCT (site TTGTATACTAG),0.612
20,TTGTGAGCTTGGGTTCTAACCTGTTGCGG (site TTGTAAGCTCG),0.037
21,TTGTGAGCTTGGGTTCTAACCTGTTGCGG (site TTGTGAGCTCC),1.15

# — the supplement of paper PMC11208160
